Key:
[1] = test system: ATXN3-Q75-VC and VN-LC3; assay: Co-immunoprecipitation of VN-LC3 with ATXN3-Q75-VC in mixed 293T cell lysates; type: binding; details: compound 100 µM; compared to without compound treatment
Source text: EcoRI-NcoI ATXN3 C-terminal Q14 and Q75-containing fragment (amino acids 251–361 in full-length ATXN3-Q14 [NM_004993]; [20]) and NcoI-NotI Venus C-terminal fragment (VC212-239) were subcloned into EcoRI- and NotI-digested pcDNA3 vector (Invitrogen) to generate pcDNA3-ATXN3-Q14−75-VC plasmid for producing ATXN3-Q14−75-VC fusion protein linked by a 6-amino acid polypeptide linker (containing NcoI restriction site). In addition, BamHI-XbaI Venus-N-terminal fragment (VN1-211) and XbaI-BamHI LC3 cDNA fragment (MAP1LC3B, NM_022818) were subcloned into BamHI-digested pcDNA5/FRT/TO vector (Invitrogen) to generate pcDNA5-VN-LC3 plasmid for producing VN-LC3 fusion protein linked by a 2-amino acid dipeptide linker (containing XbaI restriction site). The recombinant pcDNA3-ATXN3-Q14-VC, pcDNA3-ATXN3-Q75-VC, or pcDNA5-VN-LC3 plasmid (2 μg) was transiently transfected into 293T cells (2 × 10^5/6-well) using T-Pro non-liposome transfection reagent II (T-Pro Biotechnology #JT97-N002M, New Taipei City, Taiwan) according to the supplier’s instruction. After 48 h, cell lysate containing ATXN3-Q14-VC, ATXN3-Q75-VC, or VN-LC3 fusion protein was prepared using cytoskeleton (CSK) buffer containing 10 mM PIPES, 100 mM NaCl, 300 mM sucrose, 1 mM EGTA, 1 mM MgCl2, and 1 mM DTT and quantified, as described.
In this case, 293T cell lysates with transiently expressed ATXN3-Q14-VC, ATXN3-Q75-VC, or VN-LC3, and mixture of ATXN3-Q75-VC and VN-LC3 (100 μg of each) in 400 μL CSK buffer were incubated at 4 °C under gentle rotation. To test the concept of the ATTEC, 100 μM of the compound (NC009-1, -2, and -6 or LM-031) was added to the lysates containing ATXN3-Q75-VC and VN-LC3 proteins. After overnight incubation, ATXN3-Q14−75-VC protein was immunoprecipitated with rabbit ataxin-3 (1:1000; Invitrogen #PA5-26251) or mouse 5TF1-1C2 antibody (1:500; Merck #MAB1574, Darmstadt, Germany) at 4 °C overnight. […] The immune complexes were detected using HRP-conjugated goat anti-rabbit (#GTX213110-01) or goat anti-mouse (#GTX213111-01) IgG antibody (1:5000; GeneTex) and chemiluminescent substrate, as described.

[2] = test system: 293T cells co-expressing ATXN3-Q75-VC and VN-LC3; assay: BiFC high-content analysis of transfected 293T cells; type: cell-based, human; details: compound 10 μM; 24 h post-induction; untreated = 100%; range over the three named compounds
Source text: pTRE3G-BI-VN-LC3-ATXN3-Q14−75-VC was constructed by subcloning the ATXN3-Q14−75-VC KpnI-XbaI fragment and VN-LC3 BamHI fragment of the aforementioned plasmids into the corresponding restriction sites in multiple cloning site (MCS)-2 (ATXN3-Q14−75-VC fragment) or MCS-1 (VN-LC3 fragment) of the pTRE3G-BI vector (Clontech, Mountain View, CA, USA). The resulting plasmid allows the simultaneous expression of ATXN3-Q14−75-VC and VN-LC3 proteins from a bidirectional, Tet-responsive promoter that binds the Tet-On 3G trans-activator protein in the presence of doxycycline and co-transfected pCMV-Tet3G. Next, 293T cells (2 × 10^5) were plated onto 6-well plates on day 1. Upon the next day, the constructed pTRE3G-BI-VN-LC3-ATXN3-Q 14−75-VC (2 μg) together with pCMV-Tet3G (0.5 μg) were transiently co-transfected into cells using GenJet in vitro DNA transfection reagent (SignaGen Laboratories #SL100488, Rockville, MD, USA). Doxycycline (1 μg/mL) was added to cells to induce ATXN3-Q14−75-VC and VN-LC3 expression on day 3. Cell lysates were prepared at 24 h post-induction and analyzed by Western blot using ataxin-3 (1:1000; Invitrogen #PA5-26251) or LC3 (1:2000; MBL International #PM036) antibody. In addition, at 0, 6, 9, 12, and 24 h post-transfection, the pTRE3G-BI-VN-LC3-ATXN3-Q75-VC transfected cells were fixed, permeabilized, blocked, and stained with 5TF1-1C2 (1:1000; Merck #MAB1574) antibody at 4 °C overnight, followed by Cy5-donkey anti-mouse IgG secondary antibody (1:1000; Jackson ImmunoResearch #715-175-151) staining for 2 h at room temperature. Nuclei were counterstained with DAPI (0.1 μg/mL; Sigma-Aldrich). Cell images were obtained at excitation/emission wavelengths of 482/536 nm (FITC filter) for Venus, 631/692 nm (Cy5 filter) for stained expanded ATXN3-Q75 protein, and 377/447 nm (DAPI filter) for detecting nuclei (ImageXpress Micro Confocal; Molecular Devices).
On day 3, doxycycline (1 μg/mL) was added to the aforementioned transfected 293T cells along with NC009-1, -2, or -6 or LM-031 (10 μM). At 24 h post-transfection, the transfected cells were fixed, permeabilized, blocked, and stained with 5TF1-1C2 antibody, as described. After nucleus staining (DAPI, 0.1 μg/mL), the captured images were analyzed as described for overlapped ATXN3-Q75 and Venus signals and the green fluorescence of Venus-tagged LC3 puncta using the high-content imaging system, as described.

O=C(c1ccccc1)c1cc2c(O)cccc2oc1=O [LM-031]
Amount of VN-LC3 co-immunoprecipitated by 5TF1-1C2 antibody [1]: notably increased
Green fluorescence of Venus-tagged LC3 puncta [2]: 121–122%
Overlapping of green (Venus) and red (ATXN3-Q75) signals [2]: 117–119%

CC(=O)/C(=C\c1ccccc1[N+](=O)[O-])Cc1c[nH]c2ccccc12 [NC009-1]
Amount of VN-LC3 co-immunoprecipitated by 5TF1-1C2 antibody [1]: notably increased
Green fluorescence of Venus-tagged LC3 puncta [2]: 121–122%
Overlapping of green (Venus) and red (ATXN3-Q75) signals [2]: 117–119%

CC(=O)/C(=C\c1ccccc1[N+](=O)[O-])Cc1c(C)[nH]c2ccccc12 [NC009-2]
Amount of VN-LC3 co-immunoprecipitated by 5TF1-1C2 antibody [1]: notably increased
Green fluorescence of Venus-tagged LC3 puncta [2]: 121–122%
Overlapping of green (Venus) and red (ATXN3-Q75) signals [2]: 117–119%
